From ChEMBL document CHEMBL1649181 (2009)
In brackets after ≈: the same amount, converted by molar mass.

Key:
Format in all cases: functional
[1] = system: Mycobacterium tuberculosis; assay: Antimicrobial activity against Mycobacterium tuberculosis harboring 83W to Stop mutation in thymidylate synthase A by agar dilution method
[2] = system: Mycobacterium tuberculosis; assay: Antimicrobial activity against Mycobacterium tuberculosis harboring 11Q to Stop mutation in thymidylate synthase A by agar dilution method
[3] = system: Mycobacterium tuberculosis; assay: Antimicrobial activity against Mycobacterium tuberculosis harboring 118L to Stop mutation in thymidylate synthase A by agar dilution method
[4] = system: Mycobacterium tuberculosis; assay: Antimicrobial activity against Mycobacterium tuberculosis harboring 153Y to Stop mutation in thymidylate synthase A by agar dilution method
[5] = system: Mycobacterium tuberculosis; assay: Antimicrobial activity against Mycobacterium tuberculosis harboring 164Y to Stop mutation in thymidylate synthase A by agar dilution method
[6] = system: Mycobacterium tuberculosis; assay: Antimicrobial activity against Mycobacterium tuberculosis harboring 251Y to Stop mutation in thymidylate synthase A by agar dilution method
[7] = system: Mycobacterium tuberculosis; assay: Antimicrobial activity against Mycobacterium tuberculosis harboring 264Stop to R mutation in thymidylate synthase A by agar dilution method
[8] = system: Mycobacterium tuberculosis; assay: Antimicrobial activity against Mycobacterium tuberculosis harboring 127R to L mutation in thymidylate synthase A by agar dilution method
[9] = system: Mycobacterium tuberculosis; assay: Antimicrobial activity against Mycobacterium tuberculosis harboring 143L to P mutation in thymidylate synthase A by agar dilution method
[10] = system: Mycobacterium tuberculosis; assay: Antimicrobial activity against Mycobacterium tuberculosis harboring 146C to R mutation in thymidylate synthase A by agar dilution method
[11] = system: Mycobacterium tuberculosis; assay: Antimicrobial activity against Mycobacterium tuberculosis harboring 172L to P mutation in thymidylate synthase A by agar dilution method
[12] = system: Mycobacterium tuberculosis; assay: Antimicrobial activity against Mycobacterium tuberculosis harboring 182A to P mutation in thymidylate synthase A by agar dilution method
[13] = system: Mycobacterium tuberculosis; assay: Antimicrobial activity against Mycobacterium tuberculosis harboring 259A to P mutation in thymidylate synthase A by agar dilution method
[14] = system: Mycobacterium tuberculosis; assay: Antimicrobial activity against Mycobacterium tuberculosis harboring 261V to G mutation in thymidylate synthase A by agar dilution method
[15] = system: Mycobacterium tuberculosis; assay: Antimicrobial activity against Mycobacterium tuberculosis harboring 15G to R mutation in thymidylate synthase A by agar dilution method
[16] = system: Mycobacterium tuberculosis; assay: Antimicrobial activity against Mycobacterium tuberculosis harboring 183L to V mutation in thymidylate synthase A by agar dilution method
[17] = system: Mycobacterium tuberculosis; assay: Antimicrobial activity against Mycobacterium tuberculosis harboring 191Q to R mutation in thymidylate synthase A by agar dilution method
[18] = system: Mycobacterium tuberculosis; assay: Antimicrobial activity against Mycobacterium tuberculosis harboring 202T to A mutation in thymidylate synthase A by agar dilution method

Nc1ccc(C(=O)O)c(O)c1 [AMINOSALICYLIC ACID]
MIC [1]: >128 µg/mL
MIC [2]: >128 µg/mL
MIC [3]: >128 µg/mL
MIC [4]: >128 µg/mL
MIC [5]: >128 µg/mL
MIC [6]: >128 µg/mL
MIC [7]: >128 µg/mL
MIC [8]: >128 µg/mL
MIC [9]: >128 µg/mL
MIC [10]: >128 µg/mL
MIC [11]: >128 µg/mL
MIC [12]: >128 µg/mL
MIC [13]: 64 µg/mL (≈ 418 µM)
MIC [14]: >128 µg/mL
MIC [15]: >8 µg/mL
MIC [16]: <64 µg/mL
MIC [17]: <64 µg/mL
MIC [18]: <128 µg/mL
